Source: PubChem BioAssay AID200 (DTP/NCI, 2004)
Where “and” joins values, the source holds several entries; their conditions need not be identical. Equal values may be shown once. Inconclusive results and toxic doses are left out.

System: B6C3F1 mice, B16 melanoma ip, median survival T/C
Assay: NCI In Vivo Anticancer Drug Screen. Data for tumor model B16 Melanoma (intraperitoneal) in B6C3F1 mice
Settings: endpoint: median survival time, schedule: Q01DX009 (ip), higher = longer survival
Experimental: The antitumor activity of compounds was measured in mice bearing transplantable tumors. Survival or tumor size were measured and the results are expressed as the measurement made in the treated group (T) divided by the measurement made in the vehicle treated control group (C). The tumor model used in this assay is B16 Melanoma (intraperitoneal) in B6C3F1 mice

[1] = dose: 6.25 mg/kg/injection, vehicle: saline
[2] = dose: 12.5 mg/kg/injection, vehicle: Klucel (hydroxypropylcellulose) (HPC)
[3] = dose: 12.5 mg/kg/injection, vehicle: saline
[4] = dose: 25.0 mg/kg/injection, vehicle: saline
[5] = dose: 50.0 mg/kg/injection, vehicle: saline
[6] = dose: 25.0 mg/kg/injection, vehicle: Klucel (hydroxypropylcellulose) (HPC)
[7] = dose: 50.0 mg/kg/injection, vehicle: Klucel (hydroxypropylcellulose) (HPC)
[8] = dose: 100.0 mg/kg/injection, vehicle: Klucel (hydroxypropylcellulose) (HPC)
[9] = dose: 200.0 mg/kg/injection, vehicle: Klucel (hydroxypropylcellulose) (HPC)
[10] = dose: 100.0 mg/kg/injection, vehicle: saline
[11] = dose: 200.0 mg/kg/injection, vehicle: saline
[12] = dose: 50.0 mg/kg/injection, vehicle: saline with Tween-80

`CC1=C2C(=CO[C@H](C)[C@H]2C)C(=O)C(C(=O)O)=C1O` was tested, and the T/C (dose: 6.25 mg/kg/injection, vehicle: Klucel (hydroxypropylcellulose) (HPC)) was 105 % of control, the T/C [1] was 108 % of control and the T/C [2] was 102 % of control. For the same molecule, the T/C [3] was 100 % of control, the T/C [4] was 100 % of control and the T/C [5] was 98 % of control.

With `[Cl][Pt+2][Cl].[NH-]c1ccc(Cl)cc1[NH-]` the T/C (dose: 2.5 mg/kg/injection, vehicle: saline with Tween-80) was 116 % of control and the T/C (dose: 20.0 mg/kg/injection, vehicle: saline with Tween-80) was 168 % of control.

For `NC(=O)c1ncn(C2OC(CO)C(O)C2O)c1O` (stereo unspecified), the T/C [2] was 102 % of control and 106 % of control, the T/C [6] was 102 % of control and 107 % of control and the T/C [7] was 98 % of control and 107 % of control. For the same molecule, the T/C [8] was 96 % of control and 106 % of control, the T/C [9] was 97 % of control and 102 % of control and the T/C (dose: 400.0 mg/kg/injection, vehicle: Klucel (hydroxypropylcellulose) (HPC)) was 90 % of control.

`CCCCCCCCCCC(OC(C)=O)C1CCC(C2CCC(C(O)CCCCCCCCCCCCC3C=C(C)OC3=O)O2)O1` (stereo unspecified) was tested, and the T/C (dose: 0.25 mg/kg/injection, vehicle: water) was 97 % of control, the T/C (dose: 0.5 mg/kg/injection, vehicle: water) was 95 % of control and the T/C (dose: 1.0 mg/kg/injection, vehicle: water) was 93 % of control. For the same molecule, the T/C (dose: 2.0 mg/kg/injection, vehicle: water) was 100 % of control and the T/C (dose: 4.0 mg/kg/injection, vehicle: water) was 100 % of control.

For `CCC/C=C/C=C/C(=O)OC1/C(=C/C(=O)OC)CC2CC(C(C)O)OC(=O)CC(O)CC3CC(OC(C)=O)C(C)(C)C(O)(CC4C/C(=C/C(=O)OC)CC(/C=C/C(C)(C)C1(O)O2)O4)O3` (stereo unspecified), the T/C (dose: 4.69 micrograms/kg/injection, vehicle: saline + alcohol) was 94 % of control, the T/C (dose: 9.38 micrograms/kg/injection, vehicle: saline + alcohol) was 100 % of control and the T/C (dose: 18.75 micrograms/kg/injection, vehicle: saline + alcohol) was 116 % of control and 104 % of control. For the same molecule, the T/C (dose: 37.5 micrograms/kg/injection, vehicle: saline + alcohol) was 111 % of control and 96 % of control and the T/C (dose: 75.0 micrograms/kg/injection, vehicle: saline + alcohol) was 99 % of control and 105 % of control.

`CC(C)C(NC(=O)C(F)(F)F)C(=O)O` (stereo unspecified) was tested, and the T/C [5] was 96 % of control and the T/C [10] was 89 % of control.

For `COC1C(/C=C/C(C)=O)OC2OC(C)(C)OC21` (stereo unspecified), the T/C [1] was 92 % of control and 94 % of control and 100 % of control, the T/C [3] was 93 % of control and 97 % of control and 98 % of control and the T/C [4] was 91 % of control and 96 % of control and 101 % of control. The T/C [5] was 108 % of control and 87 % of control and 101 % of control, the T/C [10] was 93 % of control and 103 % of control and 104 % of control and the T/C [11] was 112 % of control.

`CNc1nc(NC)nc(NC)n1` was tested, and the T/C [2] was 91 % of control, the T/C [6] was 96 % of control and the T/C [7] was 100 % of control. The T/C [8] was 106 % of control.

`CN=C(N)N/N=C(\C)c1ccc2c(c1)Cc1cc(/C(C)=N/NC(N)=NC)ccc1-2` was tested, and the T/C (dose: 0.75 mg/kg/injection, vehicle: saline with Tween-80) was 97 % of control and the T/C (dose: 1.5 mg/kg/injection, vehicle: saline with Tween-80) was 101 % of control.

In the case of `O=C1CN(CO)C(=O)N1CO`, the T/C [6] is reported as 93 % of control, the T/C [7] is reported as 97 % of control and the T/C [8] is reported as 110 % of control. For the same molecule, the T/C [9] was 103 % of control.

In the case of `CC(C)(C)OC(=O)NC(CCCCNC(=O)C(F)(F)F)C(=O)ON1C(=O)CCC1=O` (stereo unspecified), the T/C (dose: 12.5 mg/kg/injection, vehicle: saline with Tween-80) is reported as 91 % of control, the T/C (dose: 25.0 mg/kg/injection, vehicle: saline with Tween-80) is reported as 94 % of control and the T/C [12] is reported as 96 % of control and 102 % of control.

In the case of `CC(C)(C)OC(=O)NC(Cc1cn(Cc2ccccc2)cn1)C(=O)O` (stereo unspecified), the T/C [12] is reported as 102 % of control, the T/C (dose: 100.0 mg/kg/injection, vehicle: saline with Tween-80) is reported as 97 % of control and the T/C (dose: 200.0 mg/kg/injection, vehicle: saline with Tween-80) is reported as 100 % of control.

In the case of `CC(C)=CCN1C(=O)c2ccccc2C1=O`, the T/C [10] is reported as 104 % of control, the T/C [11] is reported as 102 % of control and the T/C (dose: 400.0 mg/kg/injection, vehicle: saline) is reported as 94 % of control.
